pEC50: −log10 of the molar value. Like-named read-outs stand apart in the source and are kept apart here.
Tests used:
C3H/HeN mice = assay: Re-entrainment of running wheel activity after 6 h advance of dark onset (jet-lag model); assay type: in vivo; conditions: 30 μg/mouse s.c., 3 days, WT; in words
Text: Male and female C3H/HeN (C3H) wild-type (WT), MT1 knockout (MT1KO), and MT2 knockout (MT2KO) mice (average 6.28 months) used in this study were raised in our breeding colony at University at Buffalo. […] Genotype was confirmed using tail samples at the end of each experiment and was verified periodically during the tenure of the colony. The strains of mice in our breeding colony were re-derived periodically by backcrossing with WT mice to reduce genetic drift.
Mice were group housed (3-5 per cage) with corncob bedding in polycarbonate translucent cages (30×19 cm) and maintained in a 14/10 light-dark (LD) cycle (Zeitgeber time 0 or ZT0 corresponds to Lights ON and ZT 14 to Lights OFF) in temperature and humidity controlled rooms with ad libitum access to food and water in the Laboratory Animal Facility at the University at Buffalo. Light levels were 200-300 lux at the level of the cage. Treatments and animal care performed in the dark were under a dim red safelight (15 watts, Kodak 1A filter) with illuminance of less than 3-5 lux (Benloucif, S. & Dubocovich, M. L. J Biol Rhythms 11, 113-125, (1996). All experimental procedures using mice were conducted in accordance with guidelines set forth by the National Institutes of Health and approved by the University at Buffalo Institutional Animal Care and Use Committee.
Circadian rhythm phase was determined for each mouse using the onset of running wheel activity defined as CT12 (Circadian Time 12). Running wheel activity was measured continuously via magnetic microswitches detecting wheel revolutions with a computer equipped with Clocklab data collection Software™ (Actimetrics: Wilmette, Ill.). All actigraphy data was visualized and analyzed using ClockLab™ and MATLAB™ software. All mice were individually housed in cages (33×15 cm) equipped with running wheels in light-tight ventilated cabinets with controlled temperature and LD cycles (Phenome Technologies: Skokie, Ill.). Male and female mice were housed in separate cabinets for all experiments.
Male and female C3H WT, MT1KO, and MT2KO mice (3 to 6 months) were maintained under a 12:12 LD cycle for at least 2 weeks prior experimental manipulations to allow stable entrainment to dark onset before advance of the LD cycle. Actigraphy data was recorded as described above and all experiment protocols performed as described (Dubocovich, M. L. et al., J Pineal Res 39, 113-120, 2005). On the first day of treatment, the dark onset was advanced 6 h. […] Post treatment, mice were given 14-20 days to re-entrain running wheel activity onsets to the new dark onset. Using exported running wheel activity onsets from actograms, onset hours advanced each day were determined by subtracting this value each day from the average onset of running wheel activity for 3 days prior to treatment for each mouse. Further, using the data from this calculation combined with visualization of actograms, the number of days to reach stable re-entrainment was determined for each mouse.
All statistical analyses as described in further detail for each experiment were conducted using GraphPad Prism 8™ (La Jolla, Calif.). All data sets were visualized for normality using QQ plots of predicted vs. actual residuals. Actigraphy data was generated for visualization blind to treatment prior to the quantification and statistical analysis stages. […] Data in FIGS. 4F & 4G were compared via a two-way ANOVA (3×2: genotype x treatment) with Tukey's post hoc analyses (P<0.05). […]

hMT1 [1] = target: T1, hMT1 (Homo sapiens, UniProt P48039); assay: 2-[125I]-iodomelatonin competition binding, CHO cell membranes; conditions: CHO-hMT1; affinity shift by G protein inactivation
T1 sequence (P48039 whole entry): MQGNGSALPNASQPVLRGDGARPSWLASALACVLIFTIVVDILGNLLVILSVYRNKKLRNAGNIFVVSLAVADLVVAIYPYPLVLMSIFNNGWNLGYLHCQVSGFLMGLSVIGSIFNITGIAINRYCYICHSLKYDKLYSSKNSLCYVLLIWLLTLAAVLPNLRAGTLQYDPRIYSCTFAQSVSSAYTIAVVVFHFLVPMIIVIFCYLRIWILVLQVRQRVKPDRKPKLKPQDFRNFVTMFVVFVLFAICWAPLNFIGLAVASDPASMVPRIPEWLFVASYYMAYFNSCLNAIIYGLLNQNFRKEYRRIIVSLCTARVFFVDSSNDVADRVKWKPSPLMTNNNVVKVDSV
Description: For receptor binding studies, '7447 was dissolved in 50% DMSO/50% ethanol for 13 mM stock solution, diluted 1/10 in 100% ethanol then 1/10 again in 50% ethanol/50% Tris-HCl buffer. Both '3384 and '4226 were dissolved in 100% ethanol for 13 mM stock solutions and then diluted 1/10 in 50% ethanol/50% Tris-HCl buffer. Further dilutions were done in Tris-HCl buffer.
Assays were incubated for 1 hour at 25° C. Bound radioligand was separated from freeby rapidvacuum filtration using glass microfiber filters (Whatman, Krackeler Scientific, Inc., Albany N.Y., USA) saturated in 0.5% polyethylenimine solution.
Affinity shifts or lack thereof with G protein inactivation indicate apparent efficacy (Lefkowitz, R. J. et al., J Biol Chem 251, 4686-4692, 1976) as ligands are classified as agonists (ΔpKi% MLT>20%), antagonists (ΔpKi% MLT<20%, >−20%), or inverse agonists (ΔpKi% MLT<−20%) accordingly.

hMT1 [2] = target: T1, hMT1; assay: cAMP assay (GloSensor), isoproterenol-stimulated cAMP in HEK cells; assay type: cell-based; set-up: expressed in transfected cells; host or cells: HEK-T (HEK-293 T) cells, co-transfected with GloSensor DNA; conditions: agonist; for Emax: normalized to melatonin response, read-out: MT1 % Emax (converted)
Description: HEK-293 T cells were maintained with complete Dulbecco's modified Eagle's medium (DMEM), which is composed of 10% fetal bovine serum (FBS), 2 mM L-glutamine, 100 units/ml penicillin G, 100 μg/ml streptomycin at 37° C. in the presence of 5% CO2
(§1) MT1 and MT2 receptors were tested using Promega's spilt luciferase based GboSensor cAMP biosensor technology. HEK-T cells were plated in 15 cm cell culture dish (at a density of 18 million cells) containing DMEM composed of 10% dialyzed FBS, 2 mM L-glutamine, 100 units/ml penicillin G, 100 μg/ml streptomycin for 4-6 hour. Then, cells were co-transfected with 8 μg of construct which encodes either MT1 or MT2 (de-Tangonized constructs) and […] of Glosensor DNA. Next day, transfected cells were seeded into poly-L-lysinecoated 384-well white clear bottom cell culture plates with complete DMEM with 1% dialized FBS at a density of 20,000 cells per well for another 24 h. The next day, cell medium were discarded and loaded with 20 μl of assay buffer (1×HBSS, 20 mM HEPES, pH 7.4, 0.1% BSA). To measure agonist activity of MT1 or MT2 receptor, 10 μl of test compound solution at 3× final concentration was added for 15 minutes followed by addition of 10 μl of luciferin/isoproterenol mixture (at a final concentration of 4 mM and 200 nM respectively) for another 15 mins for luminescence quantification. Then, plates were counted using SpectraMax luminescence reader (Molecular Device). Data were analyzed using GraphPad Prism 6.0.

MT2 [3] = target: T2, MT2 (Homo sapiens, UniProt P49286); assay: as above; assay type: cell-based; set-up: expressed in transfected cells; host or cells: HEK-T (HEK-293 T) cells, co-transfected with GloSensor DNA; conditions: for Emax: normalized to melatonin response, read-out: MT2 % Emax (converted)
T2 sequence (P49286 1-362): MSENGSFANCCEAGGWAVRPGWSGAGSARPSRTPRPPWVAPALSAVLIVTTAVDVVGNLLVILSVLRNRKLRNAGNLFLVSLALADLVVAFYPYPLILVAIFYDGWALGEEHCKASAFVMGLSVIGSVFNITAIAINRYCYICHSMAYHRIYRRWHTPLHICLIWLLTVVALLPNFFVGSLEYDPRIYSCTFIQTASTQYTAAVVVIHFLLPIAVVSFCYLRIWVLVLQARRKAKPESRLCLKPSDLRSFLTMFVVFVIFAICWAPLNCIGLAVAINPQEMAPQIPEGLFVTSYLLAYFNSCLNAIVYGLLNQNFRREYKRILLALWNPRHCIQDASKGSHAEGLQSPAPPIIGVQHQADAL
Description: as §1, with “Next day, transfected cells were seeded into poly-L-lysinecoated 384-well white clear bottom cell culture plates with complete DMEM with 1% dialized FBS at a density of 20,000 cells per well for another 24 h.” left out

MT2 [4] = target: T2, MT2; assay: Ligand bias quantification (G protein vs β-arrestin pathway, melatonin as reference); assay type: cell-based; set-up: expressed in transfected cells; host or cells: HEK-T cells (Gi/cAMP arm) and HTLA cells (β-arrestin Tango arm); conditions: at MT2; bias factor 10^ΔΔLog(Emax/EC50)

Row | Compound | rate of re-entrainment to the new light-dark cycle (C3H/HeN mice) | ΔpKi (pKi control − pKi inactive) (hMT1 [1]) | Emax (hMT1 [2]; HEK293, Table 1) | MT1 pEC50 (hMT1 [2]; Table 1) | selectivity for the MT2 receptor (MT2 [3]) | Emax (MT2 [3]; HEK293, Table 1, agonist) | pEC50 (MT2 [3]; agonist, read-out: EC50 at MT2) | Bias (MT2 [4]) | Emax (hMT1 [2]; HEK293, Table 2) | MT1 pEC50 (hMT1 [2]; Table 2) | Emax (MT2 [3]; HEK293, Table 2, agonist) | MT2 pEC50 (MT2 [3]; Table 2, agonist)
1 | COc1ccc2[nH]cc(CCNC(C)=O)c2c1 [Melatonin, reference compound] | accelerated re-entrainment | 1.19 | – | – | – | – | – | – | – | – | – | –
2 | COc1ccc2c(c1)N(Cc1ccc(C#N)c(OC)c1)CCO2 [ZINC442850041] | – | – | 99% | 7.91 ± 0.04 | 25 fold | 97% | 9.33 | 0.046 | – | – | – | –
3 | COc1ccc2c(c1)N(Cc1ccn(C)c(=O)c1)CCO2 [ZINC608506688] | – | – | – | – | – | – | – | 8.2 | 99% | 9.78 ± 0.13 | 89% | 8.60 ± 0.10

From patent publication US20230052740A1, “MODULATORS OF CIRCADIAN RHYTHMS AND USES THEREOF” (The Regents of the University of California, priority 2019, published 2023)
